Laboratory results taken from PubChem BioAssay (NCI).
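In this assay, cells in 96-well plates receive the compound at five concentrations for 48 hours. Endpoints are linearly interpolated between the surrounding concentrations. TGI is the concentration that stops growth completely.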

Tests used:
Assay in all cases: DTP human tumour cell line panel, 48 h
786-0 renal = test system: 786-0 renal
A498 renal = test system: A498 renal
A549 NSCLC = test system: A549 NSCLC
ACHN renal = test system: ACHN renal
BT-549 breast = test system: BT-549 breast
CAKI-1 renal = test system: CAKI-1 renal
CCRF-CEM leukemia = test system: CCRF-CEM leukemia
COLO 205 colon = test system: COLO 205 colon
DU-145 prostate = test system: DU-145 prostate
EKVX NSCLC = test system: EKVX NSCLC
HCC-2998 colon = test system: HCC-2998 colon
HCT-116 colon = test system: HCT-116 colon
HCT-15 colon = test system: HCT-15 colon
HL-60(TB) leukemia = test system: HL-60(TB) leukemia
HOP-62 NSCLC = test system: HOP-62 NSCLC
HOP-92 NSCLC = test system: HOP-92 NSCLC
HS 578T breast = test system: HS 578T breast
HT29 colon = test system: HT29 colon
IGROV1 ovarian = test system: IGROV1 ovarian
K-562 leukemia = test system: K-562 leukemia
KM12 colon = test system: KM12 colon
LOX IMVI melanoma = test system: LOX IMVI melanoma
M14 melanoma = test system: M14 melanoma
MALME-3M melanoma = test system: MALME-3M melanoma
MCF7 breast = test system: MCF7 breast
MDA-MB-231 breast = test system: MDA-MB-231 breast
MDA-MB-435 = test system: MDA-MB-435
MDA-N = test system: MDA-N
MOLT-4 leukemia = test system: MOLT-4 leukemia
NCI-H226 lung = test system: NCI-H226 lung
NCI-H23 lung = test system: NCI-H23 lung
NCI-H460 lung = test system: NCI-H460 lung
NCI-H522 lung = test system: NCI-H522 lung
NCI/ADR-RES ovarian = test system: NCI/ADR-RES ovarian
OVCAR-3 ovarian = test system: OVCAR-3 ovarian
OVCAR-4 ovarian = test system: OVCAR-4 ovarian
OVCAR-5 ovarian = test system: OVCAR-5 ovarian
OVCAR-8 ovarian = test system: OVCAR-8 ovarian
PC-3 prostate = test system: PC-3 prostate
RPMI-8226 leukemia = test system: RPMI-8226 leukemia
RXF 393 renal = test system: RXF 393 renal
SF-268 CNS = test system: SF-268 CNS
SF-295 CNS = test system: SF-295 CNS
SF-539 CNS = test system: SF-539 CNS
SK-MEL-2 melanoma = test system: SK-MEL-2 melanoma
SK-MEL-28 melanoma = test system: SK-MEL-28 melanoma
SK-MEL-5 melanoma = test system: SK-MEL-5 melanoma
SK-OV-3 ovarian = test system: SK-OV-3 ovarian
SN12C renal = test system: SN12C renal
SNB-19 CNS = test system: SNB-19 CNS
SNB-75 CNS = test system: SNB-75 CNS
SR leukemia = test system: SR leukemia
SW-620 colon = test system: SW-620 colon
T-47D breast = test system: T-47D breast
TK-10 renal = test system: TK-10 renal
U251 CNS = test system: U251 CNS
UACC-257 melanoma = test system: UACC-257 melanoma
UACC-62 melanoma = test system: UACC-62 melanoma
UO-31 renal = test system: UO-31 renal

`CC1=NN2C(=N)/C(=C/c3ccccc3)C(=O)N=C2S1` was tested. Which TGI (786-0 renal) did it give?
Its TGI is greater than 100 µM.

And the TGI (A498 renal)?
Its TGI is greater than 100 µM.

What about the TGI (A549 NSCLC) of the same compound?
The TGI was greater than 100 µM.

What about the TGI (ACHN renal) of the same compound?
The TGI was greater than 100 µM.

And the TGI (BT-549 breast)?
Its TGI is greater than 100 µM.

What about the TGI (CAKI-1 renal) of the same compound?
Its TGI is greater than 100 µM.

And the TGI (CCRF-CEM leukemia)?
The TGI was greater than 100 µM.

And the TGI (COLO 205 colon)?
The TGI was greater than 100 µM.

What about the TGI (DU-145 prostate) of the same compound?
The TGI was greater than 100 µM.

And the TGI (EKVX NSCLC)?
The TGI was greater than 100 µM.

And the TGI (HCC-2998 colon)?
The TGI was greater than 100 µM.

And the TGI (HCT-116 colon)?
Its TGI is greater than 100 µM.

And the TGI (HCT-15 colon)?
Its TGI is greater than 100 µM.

What about the TGI (HL-60(TB) leukemia) of the same compound?
The TGI was greater than 100 µM.

What about the TGI (HOP-62 NSCLC) of the same compound?
Its TGI is greater than 100 µM.

And the TGI (HOP-92 NSCLC)?
Its TGI is greater than 100 µM.

And the TGI (HS 578T breast)?
The TGI was greater than 100 µM.

What about the TGI (HT29 colon) of the same compound?
The TGI was greater than 100 µM.

What about the TGI (IGROV1 ovarian) of the same compound?
Its TGI is greater than 100 µM.

And the TGI (K-562 leukemia)?
The TGI was greater than 100 µM.

And the TGI (KM12 colon)?
The TGI was greater than 100 µM.

And the TGI (LOX IMVI melanoma)?
The TGI was greater than 100 µM.

What about the TGI (M14 melanoma) of the same compound?
The TGI was greater than 100 µM.

What about the TGI (MALME-3M melanoma) of the same compound?
Its TGI is greater than 100 µM.

What about the TGI (MCF7 breast) of the same compound?
Its TGI is greater than 33.6 µM.

And the TGI (MDA-MB-231 breast)?
The TGI was greater than 100 µM.

What about the TGI (MDA-MB-435) of the same compound?
Its TGI is greater than 100 µM.

And the TGI (MDA-N)?
Its TGI is greater than 100 µM.

And the TGI (MOLT-4 leukemia)?
The TGI was greater than 100 µM.

And the TGI (NCI-H226 lung)?
Its TGI is greater than 100 µM.

And the TGI (NCI-H23 lung)?
The TGI was greater than 100 µM.

What about the TGI (NCI-H460 lung) of the same compound?
The TGI was greater than 100 µM.

What about the TGI (NCI-H522 lung) of the same compound?
Its TGI is greater than 100 µM.

And the TGI (NCI/ADR-RES ovarian)?
Its TGI is greater than 51 µM.

And the TGI (OVCAR-3 ovarian)?
Its TGI is greater than 100 µM.

And the TGI (OVCAR-4 ovarian)?
The TGI was greater than 100 µM.

What about the TGI (OVCAR-5 ovarian) of the same compound?
Its TGI is greater than 100 µM.

What about the TGI (OVCAR-8 ovarian) of the same compound?
The TGI was greater than 100 µM.

And the TGI (PC-3 prostate)?
Its TGI is greater than 100 µM.

And the TGI (RPMI-8226 leukemia)?
The TGI was greater than 100 µM.

And the TGI (RXF 393 renal)?
Its TGI is greater than 100 µM.

What about the TGI (SF-268 CNS) of the same compound?
Its TGI is greater than 100 µM.

And the TGI (SF-295 CNS)?
Its TGI is greater than 100 µM.

What about the TGI (SF-539 CNS) of the same compound?
Its TGI is greater than 100 µM.

What about the TGI (SK-MEL-2 melanoma) of the same compound?
The TGI was greater than 100 µM.

And the TGI (SK-MEL-28 melanoma)?
The TGI was greater than 100 µM.

What about the TGI (SK-MEL-5 melanoma) of the same compound?
The TGI was greater than 100 µM.

And the TGI (SK-OV-3 ovarian)?
Its TGI is greater than 100 µM.

And the TGI (SN12C renal)?
Its TGI is greater than 100 µM.

And the TGI (SNB-19 CNS)?
The TGI was greater than 100 µM.

What about the TGI (SNB-75 CNS) of the same compound?
The TGI was greater than 100 µM.

And the TGI (SR leukemia)?
Its TGI is greater than 100 µM.

What about the TGI (SW-620 colon) of the same compound?
Its TGI is greater than 100 µM.

And the TGI (T-47D breast)?
The TGI was greater than 100 µM.

And the TGI (TK-10 renal)?
The TGI was greater than 100 µM.

What about the TGI (U251 CNS) of the same compound?
Its TGI is greater than 100 µM.

And the TGI (UACC-257 melanoma)?
The TGI was greater than 100 µM.

What about the TGI (UACC-62 melanoma) of the same compound?
The TGI was greater than 100 µM.

And the TGI (UO-31 renal)?
Its TGI is greater than 100 µM.

Which TGI (786-0 renal) does the source give for `COc1cc2c3c(c1OC)C1(C=CC(=O)C=C1)CC3NCC2` (configuration not stated) here?
The TGI was greater than 100 µM.

What about the TGI (A498 renal) of the same compound?
Its TGI is greater than 100 µM.

And the TGI (A549 NSCLC)?
The TGI was greater than 100 µM.

And the TGI (ACHN renal)?
Its TGI is greater than 100 µM.

What about the TGI (BT-549 breast) of the same compound?
The TGI was greater than 100 µM.

And the TGI (CAKI-1 renal)?
Its TGI is greater than 100 µM.

What about the TGI (CCRF-CEM leukemia) of the same compound?
The TGI was greater than 100 µM.

What about the TGI (COLO 205 colon) of the same compound?
Its TGI is greater than 100 µM.

What about the TGI (DU-145 prostate) of the same compound?
Its TGI is greater than 100 µM.

What about the TGI (EKVX NSCLC) of the same compound?
Its TGI is greater than 100 µM.

And the TGI (HCC-2998 colon)?
Its TGI is greater than 100 µM.

And the TGI (HCT-116 colon)?
Its TGI is greater than 100 µM.

What about the TGI (HCT-15 colon) of the same compound?
The TGI was greater than 100 µM.

And the TGI (HL-60(TB) leukemia)?
The TGI was greater than 100 µM.

What about the TGI (HOP-62 NSCLC) of the same compound?
Its TGI is greater than 100 µM.

And the TGI (HOP-92 NSCLC)?
Its TGI is greater than 100 µM.

And the TGI (HS 578T breast)?
The TGI was greater than 100 µM.

And the TGI (HT29 colon)?
Its TGI is greater than 100 µM.

And the TGI (IGROV1 ovarian)?
Its TGI is greater than 100 µM.

And the TGI (K-562 leukemia)?
The TGI was greater than 100 µM.

And the TGI (KM12 colon)?
The TGI was greater than 100 µM.

And the TGI (LOX IMVI melanoma)?
The TGI was greater than 100 µM.

What about the TGI (M14 melanoma) of the same compound?
Its TGI is greater than 100 µM.

What about the TGI (MALME-3M melanoma) of the same compound?
Its TGI is greater than 100 µM.

And the TGI (MCF7 breast)?
Its TGI is greater than 100 µM.

What about the TGI (MDA-MB-231 breast) of the same compound?
The TGI was greater than 100 µM.

What about the TGI (MDA-MB-435) of the same compound?
Its TGI is greater than 100 µM.

What about the TGI (MDA-N) of the same compound?
Its TGI is greater than 100 µM.

What about the TGI (MOLT-4 leukemia) of the same compound?
The TGI was greater than 100 µM.

And the TGI (NCI-H226 lung)?
The TGI was greater than 100 µM.

What about the TGI (NCI-H23 lung) of the same compound?
Its TGI is greater than 100 µM.

And the TGI (NCI-H460 lung)?
The TGI was greater than 100 µM.

And the TGI (NCI-H522 lung)?
The TGI was greater than 100 µM.

What about the TGI (NCI/ADR-RES ovarian) of the same compound?
Its TGI is greater than 100 µM.

What about the TGI (OVCAR-3 ovarian) of the same compound?
The TGI was greater than 100 µM.

And the TGI (OVCAR-4 ovarian)?
Its TGI is greater than 100 µM.

And the TGI (OVCAR-5 ovarian)?
The TGI was greater than 100 µM.

What about the TGI (OVCAR-8 ovarian) of the same compound?
Its TGI is greater than 100 µM.

What about the TGI (PC-3 prostate) of the same compound?
The TGI was greater than 100 µM.

What about the TGI (RPMI-8226 leukemia) of the same compound?
The TGI was greater than 100 µM.

What about the TGI (RXF 393 renal) of the same compound?
Its TGI is greater than 100 µM.

What about the TGI (SF-268 CNS) of the same compound?
The TGI was greater than 100 µM.

And the TGI (SF-295 CNS)?
Its TGI is greater than 100 µM.

And the TGI (SF-539 CNS)?
Its TGI is greater than 100 µM.

What about the TGI (SK-MEL-2 melanoma) of the same compound?
The TGI was greater than 100 µM.

What about the TGI (SK-MEL-28 melanoma) of the same compound?
Its TGI is greater than 100 µM.

And the TGI (SK-MEL-5 melanoma)?
The TGI was greater than 100 µM.

And the TGI (SK-OV-3 ovarian)?
Its TGI is greater than 100 µM.

And the TGI (SN12C renal)?
The TGI was greater than 100 µM.

What about the TGI (SNB-19 CNS) of the same compound?
The TGI was greater than 100 µM.

And the TGI (SNB-75 CNS)?
The TGI was greater than 100 µM.

And the TGI (SR leukemia)?
The TGI was greater than 100 µM.

And the TGI (SW-620 colon)?
Its TGI is greater than 100 µM.

What about the TGI (T-47D breast) of the same compound?
The TGI was greater than 100 µM.

What about the TGI (TK-10 renal) of the same compound?
Its TGI is greater than 100 µM.

And the TGI (U251 CNS)?
Its TGI is greater than 100 µM.

What about the TGI (UACC-257 melanoma) of the same compound?
Its TGI is greater than 100 µM.

And the TGI (UACC-62 melanoma)?
Its TGI is greater than 100 µM.
